In US20260109712A1, “RIFAMYCINS FOR NONTUBERCULOUS MYCOBACTERIA” (priority 2022, published 2026):
Converted amounts (≈) assume the structure as drawn.

Assays:
M. abscessus ATCC 19977 = experiment: MIC assay in 96-well plate format, wild-type strain; assay type: cell-based, Mycobacterium abscessus; conditions: for MIC: M. abscessus ATCC 19977, 90% growth inhibition, read-out: WT Mab MIC; for MIC ratio: WT MIC/Δarr strain MIC; for fold loss of potency compared to 5a: MIC against M. abscessus; for MICWT: Table 10
Description: (§1) MIC determination was carried out in 96-well plate format as previously described.^[13-14] 96-well plates were initially set up with 100 μL of 7H9 per well. For each compound, a ten-point two-fold dilution series starting at twice the desired highest concentration was dispensed onto the 96-well plates using a Tecan D300e Digital Dispenser, with the DMSO concentration normalized to 2%. M. abscessus culture grown to mid-log phase (OD600=0.4-0.6) was diluted to OD600=0.1 (1×10^7 CFU/mL). […] Untreated control wells are included on each plate that contain bacteria suspension and 1% DMSO. Plates were sealed with parafilm, stored in boxes with wet paper towels and incubated at 37° C. with shaking (110 RPM). Plates were incubated for 3 days. To determine growth, OD600 was measured using a Tecan Infinite M200 plate reader on Day 0 and Day 3. Two biological replicates were performed. Clarithromycin was included in each experiment as a positive control.
(§2) For each well on the 96-well plate, bacterial growth was calculated by subtracting the Day 0 OD600 value from the Day 3 OD600 value. […] For compound-containing wells, percentage growth was calculated by dividing their growth values by the average drug-free bacterial growth for the compound series and multiplying by 100. For each compound series, we plotted percentage growth versus compound concentration.

Δarr M. abscessus = experiment: MIC assay, isogenic arr-deleted strain; assay type: cell-based, Mycobacterium abscessus; conditions: for Δarr Mab MIC: arr-deleted strain, 90% growth inhibition; for MICΔorr: Table 10
Description: as §1, §2

Compound	MIC (M. abscessus ATCC 19977) [µM]	MIC ratio (M. abscessus ATCC 19977)	Δarr Mab MIC (Δarr M. abscessus) [µM]	fold loss of potency compared to 5a (M. abscessus ATCC 19977) [fold]	MICWT (M. abscessus ATCC 19977) [µM]	MICΔorr (Δarr M. abscessus) [µM]
CO[C@H]1/C=C/O[C@@]2(C)Oc3c(C)c(O)c4c(c3C2=O)C2=NC3(CCN(CC(C)C)CC3)NC2=C(NC(=O)/C(C)=C/C=C/[C@H](C)[C@H](O)[C@@H](C)[C@@H](O)[C@@H](C)[C@H](OC(=O)c2ccccc2Cl)[C@@H]1C)C4=O [5f, 25-O-(2-chlorobenzoyl)-25-O-desacetyrifabutin]	0.043 (≈ 0.0406 µg/mL)	0.9	0.049			
COc1ccccc1C(=O)O[C@H]1[C@H](C)[C@H](O)[C@H](C)[C@@H](O)[C@@H](C)/C=C/C=C(\C)C(=O)NC2=C3NC4(CCN(CC(C)C)CC4)N=C3c3c(c(O)c(C)c4c3C(=O)[C@@](C)(O/C=C/[C@H](OC)[C@H]1C)O4)C2=O [5g, 25-O-(2-methoxybenzoyl)-25-O-desacetyrifabutin]	0.03 (≈ 0.0282 µg/mL)	1.0	0.03			
CO[C@H]1/C=C/O[C@@]2(C)Oc3c(C)c(O)c4c(c3C2=O)C2=NC3(CCN(CC(C)C)CC3)NC2=C(NC(=O)/C(C)=C/C=C/[C@H](C)[C@H](O)[C@@H](C)[C@@H](O)[C@@H](C)[C@H](OC(=O)c2ccccc2C(F)(F)F)[C@@H]1C)C4=O [5h, 25-O-(2-trifluoromethylbenzoyl)-25-O-desacetyrifabutin]	0.1 (≈ 0.0977 µg/mL)	0.8	0.12	2		
CO[C@H]1/C=C/O[C@@]2(C)Oc3c(C)c(O)c4c(c3C2=O)C2=NC3(CCN(CC(C)C)CC3)NC2=C(NC(=O)/C(C)=C/C=C/[C@H](C)[C@H](O)[C@@H](C)[C@@H](O)[C@@H](C)[C@H](OC(=O)c2ccccc2-c2ccccc2)[C@@H]1C)C4=O [5i, 25-O-(2-phenylbenzoyl)-25-O-desacetyrifabutin]	0.26 (≈ 0.256 µg/mL)	1.8	0.14	5		
CCC(CC)C(=O)O[C@H]1[C@H](C)[C@H](O)[C@H](C)[C@@H](O)[C@@H](C)/C=C/C=C(\C)C(=O)NC2=C3NC4(CCN(CC(C)C)CC4)N=C3c3c(c(O)c(C)c4c3C(=O)[C@@](C)(O/C=C/[C@H](OC)[C@H]1C)O4)C2=O [5l]	1.15 (≈ 1.04 µg/mL)	23.5	0.049			
CO[C@H]1/C=C/O[C@@]2(C)Oc3c(C)c(O)c4c(c3C2=O)C2=NC3(CCN(CC(C)C)CC3)NC2=C(NC(=O)/C(C)=C/C=C/[C@H](C)[C@H](O)[C@@H](C)[C@@H](O)[C@@H](C)[C@H](OC(=O)c2nccs2)[C@@H]1C)C4=O [5o, 25-O-(2-thiazolecarbonyl)-25-O-desacetyrifabutin]	0.017 (≈ 0.0156 µg/mL)	1.0	0.017			
CO[C@H]1/C=C/O[C@@]2(C)Oc3c(C)c(O)c4c(c3C2=O)C2=NC3(CCN(CC(C)C)CC3)NC2=C(NC(=O)/C(C)=C/C=C/[C@H](C)[C@H](O)[C@@H](C)[C@@H](O)[C@@H](C)[C@H](OC(=O)c2cccc(C)c2)[C@@H]1C)C4=O [UMN8]					0.075	0.065
CO[C@H]1/C=C/O[C@@]2(C)Oc3c(C)c(O)c4c(c3C2=O)C2=NC3(CCN(CC(C)C)CC3)NC2=C(NC(=O)/C(C)=C/C=C/[C@H](C)[C@H](O)[C@@H](C)[C@@H](O)[C@@H](C)[C@H](OC(=O)c2ccc(C)cc2)[C@@H]1C)C4=O [UMN9]					0.2	0.11
CCC(CC)C(=O)O[C@H]1[C@H](C)[C@H](O)[C@H](C)[C@@H](O)[C@@H](C)/C=C/C=C(\C)C(=O)NC2=C3NC4(CCN(CC(C)C)CC4)N=C3c3c(c(O)c(C)c4c3C(=O)[C@@](C)(O/C=C/[C@H](OC)[C@H]1C)O4)C2=O [UMN17]					1.15	0.049
CCC(C)C(=O)O[C@H]1[C@H](C)[C@H](O)[C@H](C)[C@@H](O)[C@@H](C)/C=C/C=C(\C)C(=O)NC2=C3NC4(CCN(CC(C)C)CC4)N=C3c3c(c(O)c(C)c4c3C(=O)[C@@](C)(O/C=C/[C@H](OC)[C@H]1C)O4)C2=O (stereo partly shown) [UMN21]					1.1	0.028
CO[C@H]1/C=C/O[C@@]2(C)Oc3c(C)c(O)c4c(c3C2=O)C2=NC3(CCN(CC(C)C)CC3)NC2=C(NC(=O)/C(C)=C/C=C/[C@H](C)[C@H](O)[C@@H](C)[C@@H](O)[C@@H](C)[C@H](OC(=O)c2ccccc2-c2ccccc2)[C@@H]1C)C4=O [UMN25]					0.26	0.14
CO[C@H]1/C=C/O[C@@]2(C)Oc3c(C)c(O)c4c(c3C2=O)C2=NC3(CCN(CC(C)C)CC3)NC2=C(NC(=O)/C(C)=C/C=C/[C@H](C)[C@H](O)[C@@H](C)[C@@H](O)[C@@H](C)[C@H](OC(=O)c2ccccc2C(F)(F)F)[C@@H]1C)C4=O [UMN30]					0.1	0.12
CO[C@H]1/C=C/O[C@@]2(C)Oc3c(C)c(O)c4c(c3C2=O)C2=NC3(CCN(CC(C)C)CC3)NC2=C(NC(=O)/C(C)=C/C=C/[C@H](C)[C@H](O)[C@@H](C)[C@@H](O)[C@@H](C)[C@H](OC(=O)Nc2cccc(-c3ccccc3)c2)[C@@H]1C)C4=O [UMN31]					0.27	0.43
CO[C@H]1/C=C/O[C@@]2(C)Oc3c(C)c(O)c4c(c3C2=O)C2=NC3(CCN(CC(C)C)CC3)NC2=C(NC(=O)/C(C)=C/C=C/[C@H](C)[C@H](O)[C@@H](C)[C@@H](O)[C@@H](C)[C@H](OC(=O)Nc2ccc(-c3ccccc3)cc2)[C@@H]1C)C4=O [UMN38]					0.2	0.43
CO[C@H]1/C=C/O[C@@]2(C)Oc3c(C)c(O)c4c(c3C2=O)C2=NC3(CCN(CC(C)C)CC3)NC2=C(NC(=O)/C(C)=C/C=C/[C@H](C)[C@H](O)[C@@H](C)[C@@H](O)[C@@H](C)[C@H](OC(=O)NCc2cc(-c3cccc(-c5ccccc5)c3)no2)[C@@H]1C)C4=O [UMN41]					0.25	0.34
CO[C@H]1/C=C/O[C@@]2(C)Oc3c(C)c(O)c4c(c3C2=O)C2=NC3(CCN(CC(C)C)CC3)NC2=C(NC(=O)/C(C)=C/C=C/[C@H](C)[C@H](O)[C@@H](C)[C@@H](O)[C@@H](C)[C@H](OC(=O)N2CCN(CC(F)(F)F)CC2)[C@@H]1C)C4=O [UMN54]					0.13	0.029
CO[C@H]1/C=C/O[C@@]2(C)Oc3c(C)c(O)c4c(c3C2=O)C2=NC3(CCN(CC(C)C)CC3)NC2=C(NC(=O)/C(C)=C/C=C/[C@H](C)[C@H](O)[C@@H](C)[C@@H](O)[C@@H](C)[C@H](OC(=O)N2CCN(CCO)CC2)[C@@H]1C)C4=O [UMN55]					0.28	0.13
CO[C@H]1/C=C/O[C@@]2(C)Oc3c(C)c(O)c4c(c3C2=O)C2=NC3(CCN(CC(C)C)CC3)NC2=C(NC(=O)/C(C)=C/C=C/[C@H](C)[C@H](O)[C@@H](C)[C@@H](O)[C@@H](C)[C@H](OC(=O)Nc2nc(-c3ccccc3)cs2)[C@@H]1C)C4=O [UMN57]					0.15	0.25
CO[C@H]1/C=C/O[C@@]2(C)Oc3c(C)c(O)c4c(c3C2=O)C2=NC3(CCN(CC(C)C)CC3)NC2=C(NC(=O)/C(C)=C/C=C/[C@H](C)[C@H](O)[C@@H](C)[C@@H](O)[C@@H](C)[C@H](OC(=O)N2Cc3ccccc3C2)[C@@H]1C)C4=O [UMN65]					0.11	0.052
CO[C@H]1/C=C/O[C@@]2(C)Oc3c(C)c(O)c4c(c3C2=O)C2=NC3(CCN(CC(C)C)CC3)NC2=C(NC(=O)/C(C)=C/C=C/[C@H](C)[C@H](O)[C@@H](C)[C@@H](O)[C@@H](C)[C@H](OC(=O)N2CCN(C(C)C)CC2)[C@@H]1C)C4=O [UMN66]					0.17	0.056
CO[C@H]1/C=C/O[C@@]2(C)Oc3c(C)c(O)c4c(c3C2=O)C2=NC3(CCN(CC(C)C)CC3)NC2=C(NC(=O)/C(C)=C/C=C/[C@H](C)[C@H](O)[C@@H](C)[C@@H](O)[C@@H](C)[C@H](OC(=O)N2CCC(N(C)C)CC2)[C@@H]1C)C4=O [UMN74]					0.12	0.13
CO[C@H]1/C=C/O[C@@]2(C)Oc3c(C)c(O)c4c(c3C2=O)C2=NC3(CCN(CC(C)C)CC3)NC2=C(NC(=O)/C(C)=C/C=C/[C@H](C)[C@H](O)[C@@H](C)[C@@H](O)[C@@H](C)[C@H](OC(=O)N2CCC(C)(C)C2)[C@@H]1C)C4=O [UMN75]					0.13	0.035
CO[C@H]1/C=C/O[C@@]2(C)Oc3c(C)c(O)c4c(c3C2=O)C2=NC3(CCN(CC(C)C)CC3)NC2=C(NC(=O)/C(C)=C/C=C/[C@H](C)[C@H](O)[C@@H](C)[C@@H](O)[C@@H](C)[C@H](OC(=O)N2CCOCC2)[C@@H]1C)C4=O [UMN78]					0.16	0.040
CO[C@H]1/C=C/O[C@@]2(C)Oc3c(C)c(O)c4c(c3C2=O)C2=NC3(CCN(CC(C)C)CC3)NC2=C(NC(=O)/C(C)=C/C=C/[C@H](C)[C@H](O)[C@@H](C)[C@@H](O)[C@@H](C)[C@H](OC(=O)N2CCCC2)[C@@H]1C)C4=O [UMN79]					0.18	0.030
COC(=O)Cn1cc(CNC(=O)O[C@H]2[C@H](C)[C@H](O)[C@H](C)[C@@H](O)[C@@H](C)/C=C/C=C(\C)C(=O)NC3=C4NC5(CCN(CC(C)C)CC5)N=C4c4c(c(O)c(C)c5c4C(=O)[C@@](C)(O/C=C/[C@H](OC)[C@H]2C)O5)C3=O)nn1 [UMN84]					0.13	0.15
